The text below walks through data of patent publication US20240132464A1, “HETEROCYCLIC COMPOUNDS AS E3 LIGASE INHIBITORS” (Accutar Biotechnology Inc., priority 2022, published 2024).

Some results are limits rather than exact numbers.

The target in the test is T1, GID4 (Uniprot ID: Q81VV7, residues 124-289) (Homo sapiens, UniProt Q8IVV7).
T1 construct: GID4 (Uniprot ID: Q81VV7, residues 124-289)
T1 sequence (Q8IVV7 124-289): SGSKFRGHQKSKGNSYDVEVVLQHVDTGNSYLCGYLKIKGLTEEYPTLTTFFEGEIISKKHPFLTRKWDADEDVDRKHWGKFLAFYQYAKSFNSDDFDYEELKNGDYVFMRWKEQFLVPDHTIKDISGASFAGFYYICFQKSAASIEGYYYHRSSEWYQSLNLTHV
In words: GID4 competitive binding assay (AlphaScreen, GID4/degron peptide PGLW). To be noted: 24 nM GID4, 48 nM biotinylated degron peptide PGLW, 4° C., read-out: IC50 (Inhibition of GID4/Degron binding by test compounds). In a few lines:
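Displacement of biotin-tagged degron tetrapeptide PGLW (48 nM) from C-terminally 6His-tagged GID4 124-289 (24 nM) read by AlphaScreen proximity signal. Compound incubation 2 h, then beads 1 h, all at 4 °C, pH 7.5, 2% DMSO final; background-corrected inhibition fitted with variable slope for IC50.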
(In general: In Alpha technology, singlet oxygen from a donor bead excites a nearby acceptor bead.)
Take `Nc1nc2c(c(N3CCCC(c4ccn[nH]4)C3)n1)CSCC2` (stereo not drawn) [Compound 208, 4-(3-(1H-pyrazol-5-yl)piperidin-1-yl)-7,8-dihydro-5H-thiopyrano[4,3-d]pyrimidin-2-amine]: the IC50 is above 5 µM. Turning to `Cc1cc(N2CCCC(c3ccn[nH]3)C2)nc(N)n1` (stereo not drawn) [Compound 209, 4-(3-(1H-pyrazol-5-yl)piperidin-1-yl)-6-methylpyrimidin-2-amine], the IC50 is above 5 µM. Next, `CC(C)c1cc(N2CCCC(c3ccn[nH]3)C2)nc(N)n1` (stereo not drawn) [Compound 210, 4-(3-(1H-pyrazol-5-yl)piperidin-1-yl)-6-isopropylpyrimidin-2-amine]: above 5 µM; `Nc1nc(C2CC2)cc(N2CCCC(c3ccn[nH]3)C2)n1` (stereo not drawn) [Compound 211, 4-(3-(1H-pyrazol-5-yl)piperidin-1-yl)-6-cyclopropylpyrimidin-2-amine]: above 5 µM; `Nc1nc(C2CCC2)cc(N2CCCC(c3ccn[nH]3)C2)n1` (stereo not drawn) [Compound 212, 4-(3-(1H-pyrazol-5-yl)piperidin-1-yl)-6-cyclobutylpyrimidin-2-amine]: above 5 µM.

Regarding `Nc1nc(N2CCCC(c3ccn[nH]3)C2)c2ccccc2n1` (stereo not drawn) [Compound 213, 4-(3-(1H-pyrazol-5-yl)piperidin-1-yl)quinazolin-2-amine], the IC50 is above 5 µM.

In the case of `Cc1nc(N)nc(N2CCCC(c3ccn[nH]3)C2)c1C` (stereo not drawn) [Compound 214, 4-(3-(1H-pyrazol-5-yl)piperidin-1-yl)-5,6-dimethylpyrimidin-2-amine], the IC50 is above 5 µM.

Turning to `Cn1nccc1C1CCCN(c2nc(N)nc3c2CCC3)C1` (stereo not drawn) [Compound 215, 4-(3-(1 methyl-1H-pyrazol-5-yl)piperidin-1-yl)-6,7-dihydro-5H-cyclopenta[d]pyrimidin-2-amine], the IC50 was above 5 µM. `Cc1nc(N)nc(N2CCCC(c3ccn[nH]3)C2)c1Br` (stereo not drawn) [Compound 216, 4-(3-(1H-pyrazol-5-yl)piperidin-1-yl)-5-bromo-6-methylpyrimidin-2-amine]: the IC50 was above 5 µM. Regarding `Nc1nc(N2CCCC(c3ccn[nH]3)C2)c2sccc2n1` (stereo not drawn) [Compound 217, 4-(3-(1H-pyrazol-5-yl)piperidin-1-yl)thieno[3,2-d]pyrimidin-2-amine], the IC50 was above 5 µM. As to `Nc1nc(N2CCCC(c3ccn[nH]3)C2)c2cnccc2n1` (stereo not drawn) [Compound 218, 4-(3-(1H-pyrazol-5-yl)piperidin-1-yl)pyrido[4,3-d]pyrimidin-2-amine], the IC50 was above 5 µM. In the case of `CC(C)c1cc(N2CCCNC(c3ccccc3Br)C2)nc(N)n1` (stereo not drawn) [Compound 220, 4-(3-(2-bromophenyl)-1,4-diazepan-1-yl)-6-isopropylpyrimidin-2-amine], the IC50 is 0.5 to 5 µM. With `CC(C)c1cc(N2CC[C@@H](F)[C@@H](c3ccccc3Br)C2)nc(N)n1` [Compound 221, 4-((3S,4R)-3-(2-bromophenyl)-4-fluoropiperidin-1-yl)-6-isopropylpyrimidin-2-amine] the figure was below 0.5 µM. Next, `CC(C)c1cc(N2CCCC(O)(c3ncn4ccccc34)C2)nc(N)n1` (stereo not drawn) [Compound 224, 1-(2-amino-6-isopropylpyrimidin-4-yl)-3-(imidazo[1,5-a]pyridin-1-yl)piperidin-3-ol]: above 5 µM.

With `Nc1cc(N2CCCC(c3ncn4ccccc34)C2)nc(N)n1` (stereo not drawn) [Compound 225, 6-(3-(imidazo[1,5-a]pyridin-1-yl)piperidin-1-yl)pyrimidine-2,4-diamine], the IC50 was in the range of 0.5 to 5 µM. Consider `CC(C)c1cc(N2CCCCC(O)(c3ccccc3Br)C2)nc(N)n1` (stereo not drawn) [Compound 226, 1-(2-amino-6-isopropylpyrimidin-4-yl)-3-(2-bromophenyl)azepan-3-ol], for which the IC50 was above 5 µM. Next, `CC(C)c1cc(N2C=C(c3ccccc3Br)CCC2)nc(N)n1` [Compound 227, 4-(5-(2-bromophenyl)-3,4-dihydropyridin-1(2H)-yl)-6-isopropylpyrimidin-2-amine]: 0.5 to 5 µM; `Nc1cc(N2CCCC(F)(c3ccccc3Br)C2)nc(N)n1` (stereo not drawn) [Compound 228, 6-(3-(2-bromophenyl)-3-fluoropiperidin-1-yl)pyrimidine-2,4-diamine]: 0.5 to 5 µM.
